Experimental data as given in patent US7811771B2, “Method for the functional determination of mannan-binding-lectin associated serine proteases (MASPs) and complexes thereof” (Nederlandse Organisatie voor …, priority 2004, dated 2010).

What was measured:
MASP-2 [1] = biological target: T1, MASP-2 (Homo sapiens, UniProt O00187); details: known from Presanis et al. Mol. Immunol. 2003; cited from earlier work
Target sequence in this assay (O00187 16-686): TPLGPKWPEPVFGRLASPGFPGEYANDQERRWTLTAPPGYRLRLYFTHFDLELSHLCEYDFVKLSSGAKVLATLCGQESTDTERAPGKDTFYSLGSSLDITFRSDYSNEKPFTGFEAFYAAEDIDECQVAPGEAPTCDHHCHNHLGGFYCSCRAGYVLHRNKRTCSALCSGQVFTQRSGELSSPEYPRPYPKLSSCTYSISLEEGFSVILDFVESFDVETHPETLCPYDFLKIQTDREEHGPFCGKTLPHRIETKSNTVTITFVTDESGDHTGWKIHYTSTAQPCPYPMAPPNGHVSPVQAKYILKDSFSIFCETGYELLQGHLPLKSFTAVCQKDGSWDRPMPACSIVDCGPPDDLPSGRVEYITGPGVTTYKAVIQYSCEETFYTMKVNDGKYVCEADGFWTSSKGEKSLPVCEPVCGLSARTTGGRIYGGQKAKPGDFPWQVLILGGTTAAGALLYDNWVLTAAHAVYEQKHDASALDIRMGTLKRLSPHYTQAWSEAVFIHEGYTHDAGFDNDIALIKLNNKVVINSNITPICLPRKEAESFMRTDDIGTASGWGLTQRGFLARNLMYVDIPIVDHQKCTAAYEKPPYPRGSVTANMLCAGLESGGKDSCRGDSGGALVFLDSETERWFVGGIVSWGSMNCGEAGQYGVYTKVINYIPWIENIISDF

MBL-MASP complex = assay: Effect of inhibitor on serum MASP activity (captured MBL-MASP complex, pro-urokinase detection); type: biochemical; details: 0-1 μM BMpg vs DMSO control; human serum captured on mannan coated plate; wild-type pro-urokinase and pyro-Glu-Gly-Arg-pNA; 37° C., 2 h
Protocol: MBL-MASP complexes were captured on a mannan coated plate as described in example 4. After capture, buffer, pro-urokinase and peptide substrate and boroMpg (0-1 μM final concentration) in DMSO, or an equivalent amount of pure DMSO (control) were added and activity was measured. All details were as described in example 4. Activity was expressed as ΔA^405/h^2×1000.
A mannan coated plate was used to capture MBL-MASP complex from diluted human serum. After washing, 100 μl buffer containing 0-1 μM Z-D-Phe-Pro-methoxypropylboroglycine-pinanediolester (BMpg or boroMpg) or buffer containing an identical volume of DMSO (solvent of boroMpg), 15 μl (50 μg/ml) wild-type pro-urokinase and 10 μl (6 mM) pyro-Glu-Gly-Arg-pNA were added. The plate was incubated at 37° C. and colour formation was followed for 2 h with a plate reader at 405 nm. Activities were expressed as ΔA/h^2×1000. All details are as described in Example 4. The results summarized in FIG. 9 show no effect of BMpg on activity of the captured MBL-MASP complex.

MASP-1 = biological target: T2, MASP-1 (Homo sapiens, UniProt P48740); details: known from Presanis et al. Mol. Immunol. 2003; cited from earlier work
T2 sequence (P48740 20-699): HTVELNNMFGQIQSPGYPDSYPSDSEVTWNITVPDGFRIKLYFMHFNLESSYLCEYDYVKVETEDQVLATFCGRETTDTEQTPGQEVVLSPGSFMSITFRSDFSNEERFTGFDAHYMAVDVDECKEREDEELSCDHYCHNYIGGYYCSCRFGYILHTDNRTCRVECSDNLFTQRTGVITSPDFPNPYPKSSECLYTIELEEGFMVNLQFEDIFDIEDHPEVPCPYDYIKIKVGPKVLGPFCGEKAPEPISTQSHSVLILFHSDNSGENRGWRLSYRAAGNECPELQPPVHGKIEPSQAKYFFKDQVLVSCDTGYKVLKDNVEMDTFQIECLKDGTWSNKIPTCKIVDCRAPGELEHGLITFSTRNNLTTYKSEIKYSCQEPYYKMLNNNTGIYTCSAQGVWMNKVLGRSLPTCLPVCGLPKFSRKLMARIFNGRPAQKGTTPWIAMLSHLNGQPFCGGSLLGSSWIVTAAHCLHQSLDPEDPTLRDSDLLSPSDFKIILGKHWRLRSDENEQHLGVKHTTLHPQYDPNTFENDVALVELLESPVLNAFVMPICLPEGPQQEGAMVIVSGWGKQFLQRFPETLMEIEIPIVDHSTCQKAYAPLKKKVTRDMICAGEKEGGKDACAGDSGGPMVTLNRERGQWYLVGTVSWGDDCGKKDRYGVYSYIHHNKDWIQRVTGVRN

MASP-2 [2] = biological target: T1, MASP-2; assay: Activity of recombinant MASP-2 on novel substrates; type: biochemical; set-up: Recombinant MASP-2 (active form) at 600 μg/ml was serially diluted; details: serially diluted recombinant MASP-2, 37° C., 2 h, A405
Protocol: Various dilutions of purified recombinant MASP-2 were tested for their response with wild-type pro-urokinase based detection and substrate 2 (table 1) based detection. MASP-2 was diluted in buffer to which wt pro-urokinase or pro-urokinase derivative 2 was added followed by pyro-Glu-Gly-Arg-pNA. The plate was incubated for 2h and A^405 was measured (see example 5 for details).
The activity of purified recombinant MASP-2 on wt pro-urokinase and substrate 2 was investigated. Recombinant MASP-2 (active form) at 600 μg/ml was serially diluted in 50 mM Tris HCl pH7.6, 1.5 mM NaCl, 0.5 mM CaCl2, 1 μM ZnCl2, 0.01% (v/v) BRIJ35™. To wells of a microtiter plate 100 μl of MASP-2 dilution, 10 μof wt pro-urokinase at approximately 50 μg/ml) or 10 μl substrate 2 (at approximately 75 μg/ml) were added, followed by 10 μl of peptide substrate pyro Glu-Gly-Arg-pNA (at 6 mM). The plate was incubated at 37° C. and absorbance change at 405 nm was followed in time for 2 h.
Target sequence in this assay (O00187 16-444 limits assumed): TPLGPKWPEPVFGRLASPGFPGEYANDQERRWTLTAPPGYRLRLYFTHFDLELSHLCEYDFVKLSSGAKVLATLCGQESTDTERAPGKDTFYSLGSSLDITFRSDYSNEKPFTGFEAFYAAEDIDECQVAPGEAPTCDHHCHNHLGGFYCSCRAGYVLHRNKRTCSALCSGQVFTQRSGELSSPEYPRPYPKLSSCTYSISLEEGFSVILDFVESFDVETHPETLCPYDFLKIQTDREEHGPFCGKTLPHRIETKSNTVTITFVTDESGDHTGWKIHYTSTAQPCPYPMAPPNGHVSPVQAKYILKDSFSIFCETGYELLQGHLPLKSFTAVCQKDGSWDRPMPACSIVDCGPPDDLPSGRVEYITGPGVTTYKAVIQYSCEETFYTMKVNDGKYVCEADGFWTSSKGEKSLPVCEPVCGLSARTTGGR
Target sequence in this assay (O00187 445-686 limits assumed): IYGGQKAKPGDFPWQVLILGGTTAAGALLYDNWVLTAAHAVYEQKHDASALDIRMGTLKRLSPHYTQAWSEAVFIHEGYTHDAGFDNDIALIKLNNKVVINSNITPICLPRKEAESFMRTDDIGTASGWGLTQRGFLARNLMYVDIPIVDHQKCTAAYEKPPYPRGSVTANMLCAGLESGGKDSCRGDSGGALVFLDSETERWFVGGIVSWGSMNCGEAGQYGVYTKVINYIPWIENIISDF

MBL-MASP complexes = assay: Determination of MBL-MASP complexes in serum with pro-urokinase substrates; type: biochemical, human; details: serum diluted 10-320 fold, mannan coated plate
Protocol: A mannan-coated microtiter plate was used to bind and immobilize MBL-MASP complexes from heterozygous MBL-deficient serum (A/B genotype), homozygous MBL-deficient serum (B/B genotype) and normal serum (A/A genotype) in various dilutions. After washing, wild-type pro-urokinase or substrate 2 and chromogenic peptide pyro-Glu-Gly-Arg-pNA were added. The absorbance change at 405 nm was followed in time. The slopes of A405 versus time-squared graphs were taken as a measure of activity.
Based on the results of example 2 an assay for MBL-MASP complexes in serum was developed. Three different sera were used, serum […] MBL deficiency, serum (B/B) with an homozygous MBL deficiency and a normal serum (A/A). A microtiter plate was coated with mannan, washed and blocked as described in example 2.
Serum samples were diluted 10-320 fold in GVB++buffer (see example 2) and 100 μl of these dilutions were pipetted into wells of the coated microtiter plate. […]
To all wells 100 μl of detection buffer, 10 μl of either wild-type pro-urokinase or pro-urokinase derivative 2 at 7.6 μg/ml and 10 μl of pyro-Glu-Gly-Arg-pNA at 6 mM were added (see example 2). The plate was shaken and A^405 was followed in time with a microtiter plate reader. The slopes of the graphs of A^405 versus time squared were calculated and used as a measure of activity.

Row | effect on activity of the captured MBL-MASP complex (ΔA/h^2×1000) (MBL-MASP complex) | detection of MASP-2 activity (MASP-2 [2]) | activity in normal (A/A) serum (slope of A405 versus time squared) (MBL-MASP complexes) | Molecule | inhibition of MASP-2 (MASP-2 [1]) | inhibition of MASP-1 (MASP-1)
1 | no effect |  |  | COCCC[C@@H](NC(=O)[C@@H]1CCCN1C(=O)[C@@H](Cc1ccccc1)NC(=O)OCc1ccccc1)B1OC2C[C@@H]3C[C@@H](C3(C)C)[C@]2(C)O1 (stereo partly drawn) [BMpg, Z-D-Phe-Pro-methoxypropylboroglycine-pinanediolester] | not MASP-2 | inhibit MASP-1
2 |  | can be detected | dose dependent activity | substrate 2: pro-urokinase mutant with activation site Asn-Leu-Thr-Arg-Ile-Val-Gly-Gly (SEQ ID NO:4) (NLTRIVGG; activation site) |  | 
